Results from US10329278B2, “Pharmaceutical compounds” (Heptares Therapeutics Limited, priority 2017, dated 2019).

Tests used:
Assay type in all cases: cell-based
[1] = biological target: T1, human muscarinic M3 receptor (Homo sapiens, UniProt P20309); assay: Alphascreen Surefire phospho-ERK1/2 functional assay, M3; settings: for EC50 / pEC50 M3 / % Emax cf. ACh (M3): CHO cells stably expressing human M3; for EC50 / pEC50 M3: agonist 5 min, 37° C.; for EC50: read-out: pEC50 M3 (converted); for Emax: CHO, read-out: % Emax cf. ACh (M3); for % Emax cf. ACh (M3): relative to ACh
T1 construct: expressed in transfected cells
Procedure: (§1) ERK1/2 phosphorylation is a downstream consequence of both Gq/11 and Gi/o protein coupled receptor activation, making it highly suitable for the assessment of M1, M3 (Gq/11 coupled) and M2, M4 receptors (Gi/o coupled), rather than using different assay formats for different receptor subtypes. CHO cells stably expressing the human muscarinic M1, M2, M3 or M4 receptor were plated (25K/well) onto 96-well tissue culture plates in MEM-alpha+10% dialysed FBS. Once adhered, cells were serum-starved overnight. Agonist stimulation was performed by the addition of 5 μL agonist to the cells for 5 min (37° C.). Media was removed and 50 μL of lysis buffer added. After 15 min, a 4 μL sample was transferred to 384-well plate and 7 μL of detection mixture added.

[2] = biological target: T2, human muscarinic M2 receptor (Homo sapiens, UniProt P08172); assay: Alphascreen Surefire phospho-ERK1/2 functional assay, M2; settings: for EC50 / pEC50 M2 / % Emax cf. ACh (M2): CHO cells stably expressing human M2; for EC50 / pEC50 M2: agonist 5 min, 37° C.; for EC50: read-out: pEC50 M2 (converted); for Emax: CHO, read-out: % Emax cf. ACh (M2); for % Emax cf. ACh (M2): relative to ACh
T2 sequence (P08172 1-466): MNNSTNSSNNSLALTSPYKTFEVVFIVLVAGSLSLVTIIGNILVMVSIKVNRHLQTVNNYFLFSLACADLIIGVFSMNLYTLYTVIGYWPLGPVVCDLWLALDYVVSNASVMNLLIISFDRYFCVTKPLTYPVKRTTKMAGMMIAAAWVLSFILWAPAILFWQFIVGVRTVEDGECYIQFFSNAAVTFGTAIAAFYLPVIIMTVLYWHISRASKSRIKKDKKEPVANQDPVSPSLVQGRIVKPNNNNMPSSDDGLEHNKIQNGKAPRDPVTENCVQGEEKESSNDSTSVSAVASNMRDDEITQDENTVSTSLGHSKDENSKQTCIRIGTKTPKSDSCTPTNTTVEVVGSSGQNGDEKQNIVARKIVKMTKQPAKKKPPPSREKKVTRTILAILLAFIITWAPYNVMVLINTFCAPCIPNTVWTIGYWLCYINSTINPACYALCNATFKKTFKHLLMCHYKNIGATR
Procedure: as §1

[3] = biological target: T3, human muscarinic M1 receptor (Homo sapiens, UniProt P11229); assay: Alphascreen Surefire phospho-ERK1/2 functional assay, M1; settings: for EC50 / % Emax cf. ACh (M1) / pEC50 M1: CHO cells stably expressing human M1; for EC50 / pEC50 M1: agonist 5 min, 37° C.; for EC50: read-out: pEC50 M1 (converted); for % Emax cf. ACh (M1) / Emax: relative to ACh; for Emax: CHO, read-out: % Emax cf. ACh (M1), CHO cells stably expressing human M1
T3 sequence (P11229 1-460): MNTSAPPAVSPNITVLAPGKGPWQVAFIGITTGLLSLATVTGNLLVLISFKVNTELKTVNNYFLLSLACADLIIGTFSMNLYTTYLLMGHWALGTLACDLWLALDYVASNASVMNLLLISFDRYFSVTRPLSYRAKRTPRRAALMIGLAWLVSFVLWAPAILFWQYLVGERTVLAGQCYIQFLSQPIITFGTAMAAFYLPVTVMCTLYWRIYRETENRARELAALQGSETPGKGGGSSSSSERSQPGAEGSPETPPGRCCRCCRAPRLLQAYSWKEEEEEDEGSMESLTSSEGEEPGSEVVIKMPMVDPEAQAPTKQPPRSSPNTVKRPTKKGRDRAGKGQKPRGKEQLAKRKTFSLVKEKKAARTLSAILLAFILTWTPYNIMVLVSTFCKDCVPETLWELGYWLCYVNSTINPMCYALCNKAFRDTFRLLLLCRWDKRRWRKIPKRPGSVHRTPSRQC
Procedure: as §1

[4] = biological target: T4, human muscarinic M4 receptor (Homo sapiens, UniProt P08173); assay: Alphascreen Surefire phospho-ERK1/2 functional assay, M4; settings: for EC50 / % Emax cf. ACh (M4) / pEC50 M4: CHO cells stably expressing human M4; for EC50 / pEC50 M4: agonist 5 min, 37° C.; for EC50: read-out: pEC50 M4 (converted); for % Emax cf. ACh (M4) / Emax: relative to ACh; for Emax: CHO, read-out: % Emax cf. ACh (M4), CHO cells stably expressing human M4
T4 construct: expressed in transfected cells
T4 sequence (P08173 1-479): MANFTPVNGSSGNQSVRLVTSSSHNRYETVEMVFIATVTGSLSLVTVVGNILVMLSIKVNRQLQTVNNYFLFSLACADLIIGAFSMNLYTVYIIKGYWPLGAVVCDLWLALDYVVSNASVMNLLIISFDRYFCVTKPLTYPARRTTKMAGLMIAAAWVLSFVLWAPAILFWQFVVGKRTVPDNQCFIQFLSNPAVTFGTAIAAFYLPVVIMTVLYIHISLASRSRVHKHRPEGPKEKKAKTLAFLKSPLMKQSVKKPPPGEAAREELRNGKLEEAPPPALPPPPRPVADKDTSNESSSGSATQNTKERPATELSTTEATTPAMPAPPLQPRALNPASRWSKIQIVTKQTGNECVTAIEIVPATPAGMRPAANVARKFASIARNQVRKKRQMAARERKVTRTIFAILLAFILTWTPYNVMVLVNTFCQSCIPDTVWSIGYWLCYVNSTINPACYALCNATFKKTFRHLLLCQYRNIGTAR
Procedure: as §1

T1 sequence (P20309 whole entry): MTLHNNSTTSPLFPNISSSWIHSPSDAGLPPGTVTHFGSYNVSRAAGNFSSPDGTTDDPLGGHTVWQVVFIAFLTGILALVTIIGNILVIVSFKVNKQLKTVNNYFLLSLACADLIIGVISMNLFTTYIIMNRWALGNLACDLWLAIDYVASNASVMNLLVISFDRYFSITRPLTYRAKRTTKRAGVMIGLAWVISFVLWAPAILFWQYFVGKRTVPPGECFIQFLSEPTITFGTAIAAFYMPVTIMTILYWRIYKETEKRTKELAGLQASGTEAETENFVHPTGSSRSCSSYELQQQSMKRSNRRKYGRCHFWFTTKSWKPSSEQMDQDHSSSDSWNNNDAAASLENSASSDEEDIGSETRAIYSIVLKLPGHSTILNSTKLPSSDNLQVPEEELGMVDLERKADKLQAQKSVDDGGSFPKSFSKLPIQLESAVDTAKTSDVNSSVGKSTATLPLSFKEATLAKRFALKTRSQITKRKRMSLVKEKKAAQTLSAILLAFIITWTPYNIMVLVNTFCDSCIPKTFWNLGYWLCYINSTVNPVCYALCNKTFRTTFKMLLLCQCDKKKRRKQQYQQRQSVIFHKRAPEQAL

| EC50 [1] | Emax [1] | EC50 [2] | Emax [2] | EC50 [3] | % Emax cf. ACh (M1) [3] | EC50 [4] | % Emax cf. ACh (M4) [4] | pEC50 M3 [1] | % Emax cf. ACh (M3) [1] | pEC50 M2 [2] | % Emax cf. ACh (M2) [2] | pEC50 M1 [3] | pEC50 M4 [4] | Emax [3] | Emax [4] | SMILES |
| --- | --- | --- | --- | --- | --- | --- | --- | --- | --- | --- | --- | --- | --- | --- | --- | --- |
|  |  |  |  |  | 101% |  | 59% | < 4.70 | 22% | < 4.70 | 24% | 6.43 | 4.99 |  |  | CCOC(=O)N1C2COCC1CC(N1CC3C(C1)C3C(=O)N1CCOCC1)C2 (single isomer, unassigned; isomer 2) [10-13 Isomer 2] |
|  |  |  |  |  | 113% |  | 62% | < 4.70 | 10% | < 4.70 | 25% | 7.15 | 6.04 |  |  | CCOC(=O)N1C2COCC1CC(N1CC3C(C1)C3C(=O)N(CC)CC)C2 (single isomer, unassigned; isomer 2) [10-2 Isomer 2] |
| > 20000 nM | 6% | > 20000 nM | 12% | 9330 nM |  | 316 nM |  |  |  |  |  |  |  | 115% | 73% | CCOC(=O)[C@H]1[C@@H]2CN(C3CC4(C3)CN(C(=O)OCC)C4)C[C@@H]21 [Example 1-1, ethyl 6-[(1R,5S,6r)-6-(ethoxycarbonyl)-3-azabicyclo[3.1.0]hex-3-yl]-2-azaspiro[3.3]heptane-2-carboxylate] |
|  |  |  |  |  | 104% |  | 64% | < 4.70 | 68% | < 4.70 | 24% | 6.51 | 5.95 |  |  | CCOC(=O)N1C2COCC1CC(N1CC3C(C1)C3C(=O)N1CCOCC1)C2 (single isomer, unassigned; isomer 1) [10-13 Isomer 1] |

The next lines start with the compound.

| SMILES | EC50 [1] | Emax [1] | EC50 [2] | Emax [2] | EC50 [3] | % Emax cf. ACh (M1) [3] | EC50 [4] | % Emax cf. ACh (M4) [4] | pEC50 M3 [1] | % Emax cf. ACh (M3) [1] | pEC50 M2 [2] | % Emax cf. ACh (M2) [2] | pEC50 M1 [3] | pEC50 M4 [4] | Emax [3] | Emax [4] |
| --- | --- | --- | --- | --- | --- | --- | --- | --- | --- | --- | --- | --- | --- | --- | --- | --- |
| CCOC(=O)N1CCC2(CC(N3CC4C(C3)C4C(CC)=NOC)C2)C1 (single isomer, unassigned) [2-25 Isomer 4] | > 20000 nM | 4% | > 20000 nM | 24% | 324 nM | 65% | 151 nM | 48% |  |  |  |  |  |  |  |  |
| CCOC(=O)C1C2CN(C3CC4(CCN(C(=O)OCC)C4)C3)CC21 (mixture of isomers) [2-1 Mixture of isomers] | > 20000 nM | 0% | > 20000 nM | 7% | > 20000 nM |  | 77.6 nM |  |  |  |  |  |  |  | 22% | 86% |
| CCOC(=O)N1C2CCCC1CC(N1CC3C(C1)C3C(=O)N(C)CC)C2 (single isomer, unassigned; isomer 1) [9-1 Isomer 1] |  |  |  |  |  | 93% |  | 57% | < 4.70 | 21% | < 4.70 | 19% | 7.04 | 6.06 |  |  |
| CCOC(=O)N1CCC2(CC(N3C[C@@H]4[C@H](C3)[C@H]4c3ccnn3C)C2)C1 (single isomer, unassigned) [2-29 Isomer 2] | > 20000 nM | 2% | > 20000 nM | 36% | 646 nM |  | 87.1 nM |  |  |  |  |  |  |  | 43% | 83% |
| CCOC(=O)N1CCC2(CC(N3CC4C(C3)C4OC(C)c3ccccc3)C2)C1 (single isomer, unassigned) [2-28 Isomer 2] | > 20000 nM | 5% | > 20000 nM | 7% | 64.6 nM | 104% | 53.7 nM | 51% |  |  |  |  |  |  |  |  |
| CCOC(=O)N1CCC2(CC(N3CC4C(C3)C4C(=O)N3CCC34CC4)C2)C1 (single isomer, unassigned) [2-19 Isomer 2] | > 20000 nM | 35% | > 20000 nM | 16% | 13.2 nM |  | 37.2 nM |  |  |  |  |  |  |  | 93% | 95% |
